Source: patent US7994172B2, “[1H-pyrazolo[3, 4-D]pyrimidin-4-yl]-piperidine or -piperazine compounds as serine-theoronine kinase modulators (P70s6k, Atk1 and Atk2) for the treatment of immunological, inflammatory and proliferative diseases” (Exelixis, Inc., priority 2004, dated 2011)

Experiments:
Format in all cases: biochemical
[1] = biological target: T1, human Akt1 kinase (kinase domain residues R144-A480, activated with PDK1) (Homo sapiens, UniProt P31749); test: Akt1 kinase assay, Luciferase-Coupled Chemiluminescent Kinase assay (LCCA); settings: 1 μM ATP, 1.3 nM Akt1; read-out: Akt-1 inhibition IC50
T1 construct: made in house
Outline: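 Baculovirus-expressed PDK1-activated Akt1 kinase domain (R144-A480), 1.3 nM, with 5 μM crosstide and 1 μM ATP in Tris pH 7.5 with MgCl2/MnCl2, 3 h at ambient temperature. Remaining ATP read by luciferase-luciferin chemiluminescence; 10-point IC50 from four-parameter fit.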

[2] = biological target: T2, human Akt2 kinase (kinase domain residues K146-R480) (Homo sapiens, UniProt P31751); test: Akt2 kinase assay, Luciferase-Coupled Chemiluminescent Kinase assay (LCCA); settings: 2 μM ATP, 10 nM Akt2; read-out: Akt-2 inhibition IC50
T2 construct: human Akt2 kinase domain residues K146-R480; made in house
Protocol: Kinase activity and compound inhibition are investigated using one or more of the three assay formats described below. The ATP concentrations for each assay are selected to be close to the Michaelis-Menten constant (KM) for each individual kinase. Dose-response experiments are performed at 10 different inhibitor concentrations in a 384-well plate format. The data are fitted to four-parameter equation (2) below; where Y is the observed signal, X is the inhibitor concentration, Min is the background signal in the absence of enzyme (0% enzyme activity), Max is the signal in the absence of inhibitor (100% enzyme activity), IC50 is the inhibitor concentration at 50% enzyme inhibition and H represents the empirical Hill's slope to measure the cooperativity. Typically H is close to unity. Y=Min+(Max−Min)/(1+(X/IC50)^H) Equation (2) p70S6 Kinase Assay
Biochemical activity of Akt2 kinase was assessed using a Luciferase-Coupled Chemiluminescent Kinase assay (LCCA) format. Kinase activity was measured as the percent ATP remaining following the kinase reaction. Remaining ATP was detected by luciferase-luciferin-coupled chemiluminescence. Specifically, the reaction was initiated by mixing test compounds, 2 μM ATP, 5 μM crosstide peptide and 10 nM Akt2 (baculovirus expressed human Akt2 kinase domain residues K146-R480) in a 20 uL assay buffer (20 mM Tris-HCL pH 7.5, 10 mM MgCl2, 0.03% Triton X-100, 1 mM DTT, 3 mM MnCl2). The mixture is incubated at ambient temperature for 2 hours after which 20 μL luciferase-luciferin mix is added and the chemiluminescent signal read using a Wallac Victor2 reader. The luciferase-luciferin mix consists of 50 mM HEPES, pH 7.8, 8.5 μg/mL oxalic acid (pH 7.8), 5 (or 50) mM DTT, 0.4% Triton X-100, 0.25 mg/mL coenzyme A, 63 uM AMP, 28 μg/mL luciferin and 40,000 units/mL luciferase.

[3] = biological target: T3, human p70S6 kinase (p70S6K, kinase domain residues 1-421, T412E mutation) (Homo sapiens, UniProt P23443, T412E); test: p70S6 kinase assay, Luciferase-Coupled Chemiluminescent Kinase assay (LCCA); settings: 5 μM ATP, 12 nM p70S6K; read-out: p70S6K inhibition IC50
T3 construct: human p70S6 kinase domainresidues 1-421, containing a T412E mutation; made in house
Outline: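 Baculovirus-expressed kinase domain (12 nM) reacted 2 h at ambient temperature with 5 μM ATP and 5 μM RRRLSSLRA peptide. Buffer was Tris pH 7.5 with MgCl2, MnCl2, DTT and Triton X-100. Remaining ATP was read by luciferase-luciferin chemiluminescence. IC50 came from 10-point dose-response with a four-parameter Hill fit.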

T3 sequence (P23443 1-421 T412E): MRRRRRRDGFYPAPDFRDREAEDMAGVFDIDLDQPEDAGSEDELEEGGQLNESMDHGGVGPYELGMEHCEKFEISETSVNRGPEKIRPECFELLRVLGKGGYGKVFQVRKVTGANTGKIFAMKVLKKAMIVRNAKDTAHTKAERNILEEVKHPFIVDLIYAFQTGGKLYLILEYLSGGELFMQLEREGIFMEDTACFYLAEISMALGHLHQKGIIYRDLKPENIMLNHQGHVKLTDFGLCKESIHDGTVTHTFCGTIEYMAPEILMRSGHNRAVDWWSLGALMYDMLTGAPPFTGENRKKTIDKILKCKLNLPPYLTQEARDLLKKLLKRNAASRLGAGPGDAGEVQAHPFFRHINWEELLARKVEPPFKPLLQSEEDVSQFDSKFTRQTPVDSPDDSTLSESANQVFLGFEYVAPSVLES
T1 sequence (P31749 144-480): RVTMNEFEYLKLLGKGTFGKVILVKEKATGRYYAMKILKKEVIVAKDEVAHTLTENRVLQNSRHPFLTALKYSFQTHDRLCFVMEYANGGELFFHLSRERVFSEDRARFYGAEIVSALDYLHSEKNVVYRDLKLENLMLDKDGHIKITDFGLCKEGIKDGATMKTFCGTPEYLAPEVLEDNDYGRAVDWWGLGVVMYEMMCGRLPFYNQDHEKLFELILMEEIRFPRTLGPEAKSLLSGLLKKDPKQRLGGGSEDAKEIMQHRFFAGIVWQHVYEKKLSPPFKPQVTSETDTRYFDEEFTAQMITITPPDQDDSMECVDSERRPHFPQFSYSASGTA
T2 sequence (P31751 146-480): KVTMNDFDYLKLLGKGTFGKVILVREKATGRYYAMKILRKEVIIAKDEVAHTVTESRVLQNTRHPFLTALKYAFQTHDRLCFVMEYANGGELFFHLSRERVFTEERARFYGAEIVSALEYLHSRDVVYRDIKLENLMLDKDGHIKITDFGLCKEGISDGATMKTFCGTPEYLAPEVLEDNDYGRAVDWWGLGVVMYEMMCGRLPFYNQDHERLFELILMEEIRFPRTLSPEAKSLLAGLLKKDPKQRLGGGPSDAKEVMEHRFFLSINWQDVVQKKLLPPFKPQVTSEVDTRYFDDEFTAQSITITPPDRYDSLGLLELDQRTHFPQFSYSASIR

| SMILES | IC50 [1] | IC50 [2] | IC50 [3] |
| --- | --- | --- | --- |
| COCCN1CCN(c2ncnc3[nH]nc(Br)c23)CC1 [Entry 74, 3-bromo-4-{4-[2-(methyloxy)ethyl]piperazin-1-yl}-1H-pyrazolo[3,4-d]pyrimidine] | > 2 µM | > 2 µM | 0.5 to 2 µM |
| O=C(CN1CCN(c2ncnc3[nH]nc(Br)c23)CC1)N1CCOCC1 [Entry 75, 3-bromo-4-[4-(2-morpholin-4-yl-2-oxoethyl)piperazin-1-yl]-1H-pyrazolo[3,4-d]pyrimidine] | > 2 µM | > 2 µM | > 2 µM |
| COCCCN1CCN(c2ncnc3[nH]nc(Br)c23)CC1 [Entry 76, 3-bromo-4-{4-[3-(methyloxy)propyl]piperazin-1-yl}-1H-pyrazolo[3,4-d]pyrimidine] | > 2 µM | > 2 µM | > 2 µM |
| COc1cc(OC)nc(C(c2ccccc2)N2CCN(c3ncnc4[nH]nc(Br)c34)CC2)n1 (stereo not drawn) [Entry 77, 4-{4-[[4,6-bis(methyloxy)pyrimidin-2-yl](phenyl)methyl]piperazin-1-yl}-3-bromo-1H-pyrazolo[3,4-d]pyrimidine] | > 2 µM | > 2 µM | > 2 µM |
| Brc1n[nH]c2ncnc(N3CCN(C4CCCCc5ccccc54)CC3)c12 (stereo not drawn) [Entry 78, 3-bromo-4-[4-(6,7,8,9-tetrahydro-5H-benzocyclohepten-5-yl)piperazin-1-yl]-1H-pyrazolo[3,4-d]pyrimidine] | > 2 µM | > 2 µM | > 2 µM |
| Brc1n[nH]c2ncnc(N3CCN(Cc4ccc(OCc5ccccc5)cc4)CC3)c12 [Entry 79, 3-bromo-4-[4-({4-[(phenylmethyl)oxy]phenyl}methyl)piperazin-1-yl]-1H-pyrazolo[3,4-d]pyrimidine] | > 2 µM | > 2 µM | > 2 µM |
| CN(C)C(=O)CN1CCN(c2ncnc3[nH]nc(Br)c23)CC1 [Entry 85, 2-[4-(3-bromo-1H-pyrazolo[3,4-d]pyrimidin-4-yl)piperazin-1-yl]-N,N-dimethylacetamide] | > 2 µM | > 2 µM | > 2 µM |

Next, values leading:

| IC50 [1] | IC50 [2] | IC50 [3] | SMILES |
| --- | --- | --- | --- |
| > 2 µM | > 2 µM | 0.05 to 0.5 µM | Brc1n[nH]c2ncnc(N3CCN(Cc4cccc5ccccc45)CC3)c12 [Entry 63, 3-bromo-4-[4-(naphthalen-1-ylmethyl)piperazin-1-yl]-1H-pyrazolo[3,4-d]pyrimidine] |
| > 2 µM | > 2 µM | 0.5 to 2 µM | Clc1ccc(-c2ccc(CN3CCN(c4ncnc5[nH]nc(Br)c45)CC3)o2)cc1 [Entry 64, 3-bromo-4-(4-{[5-(4-chlorophenyl)furan-2-yl]methyl}piperazin-1-yl)-1H-pyrazolo[3,4-d]pyrimidine] |
| > 2 µM | > 2 µM | 0.5 to 2 µM | O=C(c1ccco1)N1CCN(c2ncnc3[nH]nc(Br)c23)CC1 [Entry 66, 3-bromo-4-[4-(furan-2-ylcarbonyl)piperazin-1-yl]-1H-pyrazolo[3,4-d]pyrimidine] |
| > 2 µM | > 2 µM | 0.5 to 2 µM | O=C(c1ccc2cc[nH]c2c1)N1CCN(c2ncnc3[nH]nc(Br)c23)CC1 [Entry 67, 3-bromo-4-[4-(1H-indol-6-ylcarbonyl)piperazin-1-yl]-1H-pyrazolo[3,4-d]pyrimidine] |
| > 2 µM | > 2 µM | 0.5 to 2 µM | Brc1n[nH]c2ncnc(N3CCN(CCc4cccs4)CC3)c12 [Entry 68, 3-bromo-4-{4-[2-(2-thienyl)ethyl]piperazin-1-yl}-1H-pyrazolo[3,4-d]pyrimidine] |
| > 2 µM | > 2 µM | 0.5 to 2 µM | Brc1n[nH]c2ncnc(N3CCN(CCCN4CCCC4)CC3)c12 [Entry 69, 3-bromo-4-[4-(3-pyrrolidin-1-ylpropyl)piperazin-1-yl]-1H-pyrazolo[3,4-d]pyrimidine] |
| > 2 µM | > 2 µM | 0.5 to 2 µM | Brc1n[nH]c2ncnc(N3CCN(CC4CCCCC4)CC3)c12 [Entry 70, 3-bromo-4-[4-(cyclohexylmethyl)piperazin-1-yl]-1H-pyrazolo[3,4-d]pyrimidine] |
| > 2 µM | > 2 µM | 0.5 to 2 µM | Clc1c2ccccc2c(CN2CCN(c3ncnc4[nH]nc(Br)c34)CC2)c2ccccc12 [Entry 71, 3-bromo-4-{4-[(10-chloroanthracen-9-yl)methyl]piperazin-1-yl}-1H-pyrazolo[3,4-d]pyrimidine] |
| > 2 µM | > 2 µM | 0.5 to 2 µM | CCC(C)N1CCN(c2ncnc3[nH]nc(Br)c23)CC1 (stereo not drawn) [Entry 72, 3-bromo-4-[4-(1-methylpropyl)piperazin-1-yl]-1H-pyrazolo[3,4-d]pyrimidine] |
| > 2 µM | > 2 µM | 0.5 to 2 µM | COc1cc(OC)nc(CN2CCN(c3ncnc4[nH]nc(Br)c34)CC2)n1 [Entry 73, 4-(4-{[4,6-bis(methyloxy)pyrimidin-2-yl]methyl}piperazin-1-yl)-3-bromo-1H-pyrazolo[3,4-d]pyrimidine] |
